Data reported in a melting point compilation (Tetko et al.; mined from patent text by program, amines drawn as free bases though some values may be those of a salt).

SMILES	melting point [°C]
CN1C(=O)C(NC(=O)CCc2ccc(Cl)cc2Cl)CC(=O)c2ccccc21 (stereo unspecified)	182 to 184
O=C1CN(c2ncc3ncnc(Nc4ccc(F)c(Cl)c4)c3n2)CCN1	244 to 246
CN(CCO)C(=O)C(C)(C)NC(=O)c1cc2c(n(CC3CCCCC3)c1=O)CCCCCC2	195 to 196
CC(=O)Nc1cc(F)ccc1C(=O)NCCN1CCC(n2c(=O)[nH]c3cc(Cl)ccc32)CC1	196
Cc1cccc(-c2nc3c(C)cccn3c2-c2ccnc(-c3ccc(CN4CCOCC4)cc3)c2)n1	122
COc1cc(-c2cnc3[nH]cc(C(=O)CCC(C)OC)c3n2)cc(OC)c1OC (stereo unspecified)	150 to 151
CON=C(C(C)=NN=Cc1ccccc1C(=NOC)C(=O)OC)c1ccc(Cl)cc1	104 to 105
C=C(C)COc1ccc(C(=O)C=Cc2cccnc2)c(O)c1	164 to 166
CC(C)(C)c1ccc(CN2CCN(Cc3ccc(NS(C)(=O)=O)cc3)C2=O)cc1	166 to 168
CN1C[C@H](CCN2CCN(C(c3ccccc3)c3ccccc3)CC2)C=C2c3cccc4[nH]cc(c34)C[C@H]21	165 to 169
O=S1(=O)N=C(NC2CCCC2)Nc2cc(F)ccc21	295 to 298
O=C(CNc1c(C(=O)O)[nH]c2cc(Cl)cc(Cl)c12)c1ccc(F)cc1	259 to 261
Cc1oc(-c2ccco2)nc1COc1ccc(C=O)cc1Br	146 to 147
COC(=O)CCC#Cc1cc(Cl)ccc1[N+](=O)[O-]	75 to 78
CCCCCCCCCCCCNC(=O)CS(=O)(=O)Nc1c(C(C)C)cccc1C(C)C	83 to 85
CSc1ccc2c(c1)CCN2C(=O)Nc1cccnc1	160 to 162
CC(C)(C)OC(=O)N(C[C@H](O)COc1ccc(OCc2ccccc2)cc1)C1CN(C(c2ccccc2)c2ccccc2)C1	95 to 96
Cc1nc(-n2ccc(OCC3CCCC3)cc2=O)sc1C(=O)NCc1ccccc1	196 to 198
CN(C)CCCN1CCC(O)(c2ccccc2)C(C(=O)c2ccccc2)C1 (stereo unspecified)	114 to 116
CC(=O)Oc1c(Cc2ccccc2)ccc2c1ccn2C	56 to 58
FC(F)(F)c1nc(-c2ncn3c2nc(N2CCOCC2)c2ccccc23)no1	182 to 186
CC(C)N(CCN1C(=O)C(=O)c2ccccc21)C1CCCCC1	103 to 106
CCC(=O)NCC1CC1c1cccc2nc(C)cn12 (stereo unspecified)	88 to 90
Cc1cc(Cl)c(-n2nc(C)n(C(F)F)c2=O)cc1O	154 to 156
Nc1cc(C(=O)c2ccc(C(=O)c3ccc(F)c(N)c3)cc2)ccc1F	220 to 221
C=C(COC1CC2C3CCC4=CC(=O)CCC4(C)C3(F)C(O)CC2(C)C1(O)C(=O)CO)c1ccccc1 (stereo unspecified)	169 to 171

SMILES	melting point [°C]
CO[C@]1(c2cccc(OCc3ccc4c(ccc(=O)n4C)c3)c2)CCO[C@@H](C)C1	88 to 90
CCCn1nc(-c2cc(C(C)(C)C)c(O)c(C(C)(C)C)c2)c2cccnc21	97 to 98
CC1(CSc2ccc(N)c([N+](=O)[O-])c2)CC1(Cl)Cl (stereo unspecified)	76 to 78
CCC(CC)c1nccc2c(CC(=O)O)cccc12	107 to 109
N#CN=C(Nc1cccnc1)Oc1ccccc1	154 to 155
O=C1CCCC(c2ccccc2)(c2ccccc2)N1	193 to 196
Cc1cc(Cl)cc(Cl)c1CNc1c(N[C@H](C)C(C)(C)C)c(=O)c1=O	> 300
NC(=O)/C=C/c1cc([N+](=O)[O-])ccc1Cl	208 to 210
Cc1cnc2c(c1)c(C#N)c(-c1ccc(S(=O)(=O)N[C@@H](C)C(F)(F)F)cn1)n2C1CCC1	177 to 179
NC(=O)N(O)C[C@@H]1C[C@H]1c1cccc(Oc2ccncc2)c1 (relative stereo)	130 to 132
Fc1cc(F)c(-c2c(Cl)nc(-n3ccnc3)nc2Cl)c(F)c1	72 to 74
O=C1C2=NCCCN2c2cccc(Cl)c21	170
OC1CN(C(=S)Nc2ccccc2)Cc2sccc21 (stereo unspecified)	168
Cc1nc2ccccc2n1C	102
Cc1cc(C(=O)N2Cc3ccc(C(=O)O)n3Cc3ccccc32)ccc1-c1ccccc1C(F)(F)F	127 to 130
CC(C)(C)OC(=O)n1cnc2c(I)cc(F)cc21	73 to 74
O=C1CCN(c2ncc(-c3ccc(Cl)cc3Cl)nn2)CC1	120 to 122
CCn1cc(C(=O)NCc2ccc(Cl)cc2)c(=O)c2cc(Br)sc21	196 to 197
C#CCOc1ccc2ccccc2c1COC(=O)C1CC1	68 to 73
CCCCCCCCC1(CCn2ccnc2)SCCS1	98 to 101
Cc1c(C(=O)O)sc2c(Br)cccc12	311 to 312
Cc1c(O)ccc2c1OCC(c1ccc(Cl)cc1)C2 (stereo unspecified)	98 to 100
CCCCCCOc1ccc(C(=O)CSc2ccnc3ccccc23)c(OC)c1	88.5 to 89.5
CCCC(=O)Nc1ccc(O)c(C(=O)C=CN(C)C)c1	174
COC1C=C(C)C(=O)CC(C)(C)C1OC(=O)c1ccc([N+](=O)[O-])cc1[N+](=O)[O-] (stereo unspecified)	148 to 149
